Laboratory results from patent US10670605B2, “Cysteine reactive probes and uses thereof” (The Scripps Research Institute, priority 2015, dated 2020).

Tests used:
Assay in all cases: Competitive isoTOP-ABPP in situ (fragment-treated cells)
Assay type in all cases: cell-based
[1] = biological target: T1, cysteines in MDA-MB-231 and Ramos cells (Homo sapiens, UniProt O14879)
T1 sequence (O14879 1-490): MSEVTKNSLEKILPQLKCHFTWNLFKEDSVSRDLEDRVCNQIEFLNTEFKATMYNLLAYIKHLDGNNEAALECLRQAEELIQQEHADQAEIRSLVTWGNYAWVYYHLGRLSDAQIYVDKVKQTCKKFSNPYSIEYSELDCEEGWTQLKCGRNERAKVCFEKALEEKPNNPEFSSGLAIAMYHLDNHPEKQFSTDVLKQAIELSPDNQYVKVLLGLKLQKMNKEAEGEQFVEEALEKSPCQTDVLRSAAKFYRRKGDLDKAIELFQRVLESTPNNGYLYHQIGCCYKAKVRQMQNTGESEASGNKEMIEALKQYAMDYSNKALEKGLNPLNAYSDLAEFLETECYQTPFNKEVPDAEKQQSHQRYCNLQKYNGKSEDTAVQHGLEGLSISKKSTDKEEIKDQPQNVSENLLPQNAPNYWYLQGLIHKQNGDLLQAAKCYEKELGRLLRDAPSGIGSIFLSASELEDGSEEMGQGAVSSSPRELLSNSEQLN

[2] = biological target: T2, cysteines in MDA-MB-231 and Ramos cells (Homo sapiens, UniProt P46734)
T2 sequence (P46734 1-347): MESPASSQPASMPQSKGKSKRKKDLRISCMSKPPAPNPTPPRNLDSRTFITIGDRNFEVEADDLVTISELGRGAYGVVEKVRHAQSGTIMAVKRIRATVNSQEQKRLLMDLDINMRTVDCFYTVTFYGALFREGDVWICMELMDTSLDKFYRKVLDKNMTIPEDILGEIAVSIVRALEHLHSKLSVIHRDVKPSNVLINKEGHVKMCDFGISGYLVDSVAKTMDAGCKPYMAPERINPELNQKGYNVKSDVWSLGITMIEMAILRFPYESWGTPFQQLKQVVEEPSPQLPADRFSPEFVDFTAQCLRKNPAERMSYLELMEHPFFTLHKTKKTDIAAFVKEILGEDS

[3] = biological target: T3, cysteines in MDA-MB-231 and Ramos cells (Homo sapiens, UniProt Q13162)
T3 sequence (Q13162 38-271): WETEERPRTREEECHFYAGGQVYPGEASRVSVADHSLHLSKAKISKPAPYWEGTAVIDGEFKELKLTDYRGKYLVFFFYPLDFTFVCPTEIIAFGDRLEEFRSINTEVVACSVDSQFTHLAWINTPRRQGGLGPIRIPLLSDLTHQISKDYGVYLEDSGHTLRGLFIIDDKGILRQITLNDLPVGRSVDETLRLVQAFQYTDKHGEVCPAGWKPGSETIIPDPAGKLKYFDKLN

[4] = biological target: cysteines in MDA-MB-231 and Ramos cells (Homo sapiens, UniProt P38606)
[5] = biological target: T4, cysteines in MDA-MB-231 and Ramos cells (Homo sapiens, UniProt P51946)
T4 sequence (P51946 1-323): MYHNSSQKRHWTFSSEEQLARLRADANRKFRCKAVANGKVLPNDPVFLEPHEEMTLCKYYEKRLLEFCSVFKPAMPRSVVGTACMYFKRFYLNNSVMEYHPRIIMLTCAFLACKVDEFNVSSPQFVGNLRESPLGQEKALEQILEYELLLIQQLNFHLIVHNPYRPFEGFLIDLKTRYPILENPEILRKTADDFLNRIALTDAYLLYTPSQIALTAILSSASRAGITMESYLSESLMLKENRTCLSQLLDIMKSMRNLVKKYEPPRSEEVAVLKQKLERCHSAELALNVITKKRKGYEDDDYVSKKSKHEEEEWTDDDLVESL

[6] = biological target: T5, cysteines in MDA-MB-231 and Ramos cells (Homo sapiens, UniProt Q9BRA2)
T5 sequence (Q9BRA2 1-123): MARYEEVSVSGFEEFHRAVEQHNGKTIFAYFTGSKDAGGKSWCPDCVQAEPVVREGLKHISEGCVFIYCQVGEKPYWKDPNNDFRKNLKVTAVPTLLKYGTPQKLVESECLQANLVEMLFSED

[7] = biological target: T6, cysteines in MDA-MB-231 and Ramos cells (Homo sapiens, UniProt Q9NYL9)
T6 sequence (Q9NYL9 1-352): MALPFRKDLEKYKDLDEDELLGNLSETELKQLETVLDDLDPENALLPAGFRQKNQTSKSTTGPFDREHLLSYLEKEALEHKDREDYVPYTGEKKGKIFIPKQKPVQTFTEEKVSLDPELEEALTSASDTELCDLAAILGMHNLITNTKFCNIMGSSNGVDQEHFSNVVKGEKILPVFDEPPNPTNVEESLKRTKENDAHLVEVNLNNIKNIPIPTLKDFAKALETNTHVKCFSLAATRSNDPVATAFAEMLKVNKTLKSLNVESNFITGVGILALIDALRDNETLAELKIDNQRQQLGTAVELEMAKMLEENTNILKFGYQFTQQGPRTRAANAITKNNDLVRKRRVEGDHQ

[8] = biological target: T7, cysteines in MDA-MB-231 and Ramos cells (Homo sapiens, UniProt Q9ULW0)
T7 sequence (Q9ULW0 1-747): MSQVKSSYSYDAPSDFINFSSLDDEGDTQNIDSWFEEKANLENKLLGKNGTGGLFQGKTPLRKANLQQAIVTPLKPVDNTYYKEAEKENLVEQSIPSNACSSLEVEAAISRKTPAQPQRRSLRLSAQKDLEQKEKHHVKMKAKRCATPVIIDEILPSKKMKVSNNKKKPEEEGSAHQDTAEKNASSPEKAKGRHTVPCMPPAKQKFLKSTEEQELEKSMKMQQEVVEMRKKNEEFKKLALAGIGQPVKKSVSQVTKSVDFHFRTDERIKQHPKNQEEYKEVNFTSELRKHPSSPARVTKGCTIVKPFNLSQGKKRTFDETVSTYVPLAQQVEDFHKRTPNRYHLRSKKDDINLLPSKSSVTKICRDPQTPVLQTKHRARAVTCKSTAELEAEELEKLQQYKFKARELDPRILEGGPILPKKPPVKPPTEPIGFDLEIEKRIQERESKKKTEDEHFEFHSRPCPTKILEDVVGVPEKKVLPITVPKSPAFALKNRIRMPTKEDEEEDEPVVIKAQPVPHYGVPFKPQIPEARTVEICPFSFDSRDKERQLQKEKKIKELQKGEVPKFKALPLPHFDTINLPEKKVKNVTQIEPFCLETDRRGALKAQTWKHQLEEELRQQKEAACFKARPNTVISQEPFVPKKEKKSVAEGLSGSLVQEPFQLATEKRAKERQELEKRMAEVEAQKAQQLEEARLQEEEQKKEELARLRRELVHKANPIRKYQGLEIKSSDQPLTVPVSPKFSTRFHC

Sequence of cysteines in MDA-MB-231 and Ramos cells (Homo sapiens, UniProt P38606) (P38606 whole entry): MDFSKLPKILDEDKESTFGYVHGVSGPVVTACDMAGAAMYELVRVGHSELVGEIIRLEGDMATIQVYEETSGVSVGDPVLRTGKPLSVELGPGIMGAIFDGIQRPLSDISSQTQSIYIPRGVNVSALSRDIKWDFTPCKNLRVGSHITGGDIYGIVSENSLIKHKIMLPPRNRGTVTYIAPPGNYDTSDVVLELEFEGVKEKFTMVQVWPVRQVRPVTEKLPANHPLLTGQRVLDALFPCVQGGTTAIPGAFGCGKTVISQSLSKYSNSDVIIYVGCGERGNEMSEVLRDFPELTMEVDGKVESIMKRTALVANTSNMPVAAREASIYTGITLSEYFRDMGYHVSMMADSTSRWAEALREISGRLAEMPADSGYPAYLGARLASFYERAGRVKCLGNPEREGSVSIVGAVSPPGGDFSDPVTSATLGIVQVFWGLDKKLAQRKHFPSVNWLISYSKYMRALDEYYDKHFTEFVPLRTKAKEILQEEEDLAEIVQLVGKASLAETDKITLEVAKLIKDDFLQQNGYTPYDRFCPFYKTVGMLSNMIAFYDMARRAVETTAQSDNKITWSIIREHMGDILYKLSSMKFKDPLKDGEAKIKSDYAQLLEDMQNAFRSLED

Cn1cc(S(=O)(=O)N2CCOCC2)cc1C(=O)NC(=O)CCl [compound 11]
isoTOP-ABPP ratio O14879_C343 ([1]; 100 μM in situ 231): 0.4
isoTOP-ABPP ratio P46734_C207 ([2]; 100 μM in situ 231): 0.6
isoTOP-ABPP ratio Q13162_C51 ([3]; 100 μM in situ 231): 0.9
isoTOP-ABPP ratio P38606_C138 ([4]; 100 μM in situ 231): 9.2
isoTOP-ABPP ratio P51946_C244 ([5]; 100 μM in situ 231): 1.3
isoTOP-ABPP ratio Q9BRA2_C43 ([6]; 100 μM in situ 231): 17.7
isoTOP-ABPP ratio Q9NYL9_C132 ([7]; 100 μM in situ 231): 0.5
isoTOP-ABPP ratio Q9ULW0_C536 ([8]; 100 μM in situ 231): 1.4

O=C(CCl)NC(=O)NC12CC3CC(CC(C3)C1)C2 [compound 12]
isoTOP-ABPP ratio O14879_C343 ([1]; 200 μM, insitu, 231): 3.5
isoTOP-ABPP ratio P46734_C207 ([2]; 200 μM, insitu, 231): 0.7
isoTOP-ABPP ratio Q13162_C51 ([3]; 200 μM, insitu, 231): 1.0
isoTOP-ABPP ratio P38606_C138 ([4]; 200 μM, insitu, 231): 20.0
isoTOP-ABPP ratio P51946_C244 ([5]; 200 μM, insitu, 231): 1.3
isoTOP-ABPP ratio Q9BRA2_C43 ([6]; 200 μM, insitu, 231): 20.0
isoTOP-ABPP ratio Q9NYL9_C132 ([7]; 200 μM, insitu, 231): 0.6
isoTOP-ABPP ratio Q9ULW0_C536 ([8]; 200 μM, insitu, 231): 20.0

O=C(CCl)NC12CC3CC(CC(C3)C1)C2 [compound 21]
isoTOP-ABPP ratio O14879_C343 ([1]; 200 μM, insitu, 231): 0.8
isoTOP-ABPP ratio P46734_C207 ([2]; 200 μM, insitu, 231): 0.9
isoTOP-ABPP ratio Q13162_C51 ([3]; 200 μM, insitu, 231): 1.7
isoTOP-ABPP ratio P38606_C138 ([4]; 200 μM, insitu, 231): 20.0
isoTOP-ABPP ratio P51946_C244 ([5]; 200 μM, insitu, 231): 1.4
isoTOP-ABPP ratio Q9BRA2_C43 ([6]; 200 μM, insitu, 231): 16.0
isoTOP-ABPP ratio Q9NYL9_C132 ([7]; 200 μM, insitu, 231): 1.4
isoTOP-ABPP ratio Q9ULW0_C536 ([8]; 200 μM, insitu, 231): 0.9

CC(C)CCOCCNC(=O)CCl [compound 27]
isoTOP-ABPP ratio O14879_C343 ([1]; 200 μM, insitu, 231): 0.4
isoTOP-ABPP ratio P46734_C207 ([2]; 200 μM, insitu, 231): 0.8
isoTOP-ABPP ratio Q13162_C51 ([3]; 200 μM, insitu, 231): 0.9
isoTOP-ABPP ratio P38606_C138 ([4]; 200 μM, insitu, 231): 4.6
isoTOP-ABPP ratio P51946_C244 ([5]; 200 μM, insitu, 231): 1.1
isoTOP-ABPP ratio Q9BRA2_C43 ([6]; 200 μM, insitu, 231): 20.0
isoTOP-ABPP ratio Q9NYL9_C132 ([7]; 200 μM, insitu, 231): 0.6
isoTOP-ABPP ratio Q9ULW0_C536 ([8]; 200 μM, insitu, 231): 1.1
